Results from PMC10734772 (Turkish Journal of Chemistry, 2021).

Legend:
Assay type in all cases: cell-based
K562 = assay: MTT assay, K562 cells; settings: Homo sapiens, 24 h, MTT, read-out: Viability rate
Nalm-6 = assay: MTT assay, Nalm-6 cells; settings: Homo sapiens, 24 h, MTT, read-out: Viability rate
Method: After incubation (on the third day), to precipitate leukemia cells, the cell plate was centrifuged at 1500 rpm for 5 min. […] The 50 μl of supernatant was discarded from each well and 100 μl of DMSO was added to dissolve the formazan. Plates were shaken for 45 min to dissolve the dye. Then the optical density of each well was measured by using Thermo VarioSkan Flush Multimode Reader Quantum ST5-1100 at 570 nm wavelength.
The IC50 values were calculated by using GraphPad Prism. All the data presented as the mean of 6 replicates. […] Statistical analysis was performed using dose-response inhibition, log(inhibitor) vs response-variable slope, least squares (ordinary) fit.

Molt-4 = assay: MTT assay, Molt-4 cells; settings: Homo sapiens, MOLT-4, 24 h, read-out: Viability rate
Method: (§1) K562, Jurkat, Molt-4, and Nalm-6 cell lines were cultured in RPMI-1640 medium (ECM2001, Euroclone), Reh cell line was cultured in DMEM medium (LM-D1111-Biosera) Hek293T cell line was cultured in IMDM medium (AL070A - HiMedia) supplemented with 10% heat-inactivated fetal bovine serum (F7524-Merck & Co., USA,) penicillin and streptomycin (P4333-Sigma Aldrich). K562, Jurkat and Molt-4 cell lines were seeded as 4x10^5/ml, Reh and Nalm-6 cell lines were seeded 5x10^5/ml, Hek293T cell line was seed as 2x10^5/ml. All cells were incubated at 5% CO2 and 37 °C. All cell lines were kindly provided by Dr. M. Sayitoglu and Dr. Ö. Hatirnaz-Ng from Acibadem University.
(§2) MTT assay is a 3-day test. On the first day, cell count was performed in Bio Rad TC-20 device with the help of trypan blue, each cell line was prepared by diluting to the specified concentrations and seeded in a 96-well plate as 100μL to each well and incubated for 1 day.
(§3) Each compound was solved in DMSO, their stock solutions (33.3, 10, 5, 1 mM, and 300 μM) were prepared by diluting with the same solvent and they were stored under −20°C when they were not used.
(§4) On the second day, stock solutions were subsequently diluted to various concentrations (0.3–200 μM) with related medium prior to experiments. Specified concentrations of the compounds were seeded in a 96-well plate as 100μL to each well and incubated for 24 h.
(§5) After incubation (on the third day), to precipitate leukemia cells, the cell plate was centrifuged at 1500 rpm for 5 min. Then, 100 μL of supernatant was removed from each well carefully and 10 μl of MTT solution (5 mg/mL) was added to each well and incubated at 37 °C for 4 h. The 50 μl of supernatant was discarded from each well and 100 μl of DMSO was added to dissolve the formazan. Plates were shaken for 45 min to dissolve the dye. Then the optical density of each well was measured by using Thermo VarioSkan Flush Multimode Reader Quantum ST5-1100 at 570 nm wavelength.
(§6) Subsequently, viability rate of the cells at each concentration, as percentage, was determined by following formula (1):
(§7) Viability rate (%)=100-[(OD(control)-OD(sample))/OD(control)×100].OD=Optical Density
(§8) The IC50 values were calculated by using GraphPad Prism. All the data presented as the mean of 6 replicates. Results were analyzed and illustrated with Graph Pad Prism (version 5; GraphPad Software, San Diego, CA, USA). Statistical analysis was performed using dose-response inhibition, log(inhibitor) vs response-variable slope, least squares (ordinary) fit.
(§9) To evaluate in-vitro anti-cancer activity of the newly synthesized compounds, they were tested by using the MTT assay in the BCR-ABL positive leukemic cell line (K562), BCR-ABL negative leukemic cell lines (Nalm-6, Molt-4, Reh and Jurkat), and non-leukemic human embryonic kidney tissue (Hek293T) cell line. […] The viability rate of each concentration was calculated by the formula stated in material and methods, the viability rate results for each cell were presented in Table S2 and Figure S44.

Reh = assay: MTT assay, Reh cells; settings: Homo sapiens, 24 h, read-out: Viability rate
Method: as §1, §2, §3, §4, §5, §6, §7, §8, §9

Jurkat = assay: MTT assay, Jurkat cells; settings: Homo sapiens, 24 h, read-out: Viability rate
Method: as §1, §2, §3, §4, §5, §6, §7, §8, §9

[1] = MTT assay, Hek293T non-leukemic control cells; settings: human, read-out: Viability rate
Method: as §1, §2, §3, §4, §5, §6, §7, §8, §9

Structure (SMILES): Cc1ccc(NC(=O)c2ccc(CN3CCN(C)CC3)cc2)cc1Nc1nccc(-c2cccnc2)n1 [imatinib, reference compound]
- viability at 0.3 µM (K562; K562, 0.3 μM): 98 ± 0.03%
- viability at 0.5 µM (K562; K562, 0.5 μM): 97.4 ± 0.06%
- viability at 1 µM (K562; K562, 1 μM): 95.4 ± 0.07%
- viability at 3 µM (K562; K562, 3 μM): 95.3 ± 0.05%
- viability at 5 µM (K562; K562, 5 μM): 95.4 ± 0.09%
- viability at 10 µM (K562; K562, 10 μM): 94.8 ± 0.09%
- viability at 15 µM (K562; K562, 15 μM): 88.5 ± 0.1%
- viability at 20 µM (K562; K562, 20 μM): 87 ± 0.04%
- viability at 30 µM (K562; K562, 30 μM): 72.8 ± 0.06%
- viability at 50 µM (K562; K562, 50 μM): 60.8 ± 0.1%
- viability at 70 µM (K562; K562, 70 μM): 60 ± 0.07%
- viability at 100 µM (K562; K562, 100 μM): 51.3 ± 0.05%
- viability at 150 µM (K562; K562, 150 μM): 35.1 ± 0.01%
- viability at 200 µM (K562; K562, 200 μM): 29.7%
- viability at 0.3 µM (Nalm-6; Nalm-6, 0.3 μM): 91 ± 0.08%
- viability at 0.5 µM (Nalm-6; Nalm-6, 0.5 μM): 90.7 ± 0.06%
- viability at 1 µM (Nalm-6; Nalm-6, 1 μM): 90.1 ± 0.09%
- viability at 3 µM (Nalm-6; Nalm-6, 3 μM): 84.7 ± 0.09%
- viability at 5 µM (Nalm-6; Nalm-6, 5 μM): 84.5 ± 0.05%
- viability at 10 µM (Nalm-6; Nalm-6, 10 μM): 72.9 ± 0.03%
- viability at 15 µM (Nalm-6; Nalm-6, 15 μM): 57.1 ± 0.02%
- viability at 20 µM (Nalm-6; Nalm-6, 20 μM): 52.7 ± 0.01%
- viability at 30 µM (Nalm-6; Nalm-6, 30 μM): 50.7 ± 0.03%
- viability at 50 µM (Nalm-6; Nalm-6, 50 μM): 39.7 ± 0.01%
- viability at 70 µM (Nalm-6; Nalm-6, 70 μM): 32.5 ± 0.05%
- viability at 100 µM (Nalm-6; Nalm-6, 100 μM): 32.2 ± 0.02%
- viability at 150 µM (Nalm-6; Nalm-6, 150 μM): 32.5 ± 0.01%
- viability at 200 µM (Nalm-6; Nalm-6, 200 μM): 29%
- viability at 0.3 µM (Molt-4; Molt-4, 0.3 μM): 75.6 ± 0.18%
- viability at 0.5 µM (Molt-4; Molt-4, 0.5 μM): 74.9 ± 0.18%
- viability at 1 µM (Molt-4; Molt-4, 1 μM): 75.1 ± 0.19%
- viability at 3 µM (Molt-4; Molt-4, 3 μM): 73.8 ± 0.17%
- viability at 5 µM (Molt-4; Molt-4, 5 μM): 72.7 ± 0.25%
- viability at 10 µM (Molt-4; Molt-4, 10 μM): 70.7 ± 0.21%
- viability at 15 µM (Molt-4; Molt-4, 15 μM): 70.2 ± 0.1%
- viability at 20 µM (Molt-4; Molt-4, 20 μM): 63.4 ± 0.1%
- viability at 30 µM (Molt-4; Molt-4, 30 μM): 63.3 ± 0.06%
- viability at 50 µM (Molt-4; Molt-4, 50 μM): 55.5 ± 0.05%
- viability at 70 µM (Molt-4; Molt-4, 70 μM): 52.1 ± 0.1%
- viability at 100 µM (Molt-4; Molt-4, 100 μM): 41.2 ± 0.06%
- viability at 150 µM (Molt-4; Molt-4, 150 μM): 29.8 ± 0.04%
- viability at 200 µM (Molt-4; Molt-4, 200 μM): 20.3 ± 0.02%
- viability at 0.3 µM (Reh; 0.3 μM): 97.6 ± 0.03%
- viability at 0.5 µM (Reh; 0.5 μM): 96.8 ± 0.03%
- viability at 1 µM (Reh; 1 μM): 96.4 ± 0.01%
- viability at 3 µM (Reh; 3 μM): 95.5 ± 0.02%
- viability at 5 µM (Reh; 5 μM): 94.5 ± 0.03%
- viability at 10 µM (Reh; 10 μM): 91.3 ± 0.05%
- viability at 15 µM (Reh; 15 μM): 82.4 ± 0.02%
- viability at 20 µM (Reh; 20 μM): 78.6 ± 0.02%
- viability at 30 µM (Reh; 30 μM): 70.9 ± 0.03%
- viability at 50 µM (Reh; 50 μM): 63.5 ± 0.04%
- viability at 70 µM (Reh; 70 μM): 62.9 ± 0.03%
- viability at 100 µM (Reh; 100 μM): 61.2 ± 0.01%
- viability at 150 µM (Reh; 150 μM): 60.3 ± 0.03%
- viability at 200 µM (Reh; 200 μM): 57 ± 0.02%
- viability at 0.3 µM (Jurkat; 0.3 μM): 68.4 ± 0.12%
- viability at 0.5 µM (Jurkat; 0.5 μM): 63.9 ± 0.03%
- viability at 1 µM (Jurkat; 1 μM): 61.5 ± 0.07%
- viability at 3 µM (Jurkat; 3 μM): 61.3 ± 0.05%
- viability at 5 µM (Jurkat; 5 μM): 60.7 ± 0.08%
- viability at 10 µM (Jurkat; 10 μM): 60.6 ± 0.14%
- viability at 15 µM (Jurkat; 15 μM): 57.9 ± 0.05%
- viability at 20 µM (Jurkat; 20 μM): 46.8 ± 0.05%
- viability at 30 µM (Jurkat; 30 μM): 34.5 ± 0.04%
- viability at 50 µM (Jurkat; 50 μM): 26.2 ± 0.05%
- viability at 70 µM (Jurkat; 70 μM): 17.8 ± 0.02%
- viability at 100 µM (Jurkat; 100 μM): 17.5 ± 0.01%
- viability at 150 µM (Jurkat; 150 μM): 17.3 ± 0.01%
- viability at 200 µM (Jurkat; 200 μM): 16.6%
- viability at 24 h, 0.3 µM ([1]; Hek293T cells (non-leukemic control cell line), 0.3 μM): 83.4 ± 0.02%
- viability at 24 h, 0.5 µM ([1]; Hek293T cells (non-leukemic control cell line), 0.5 μM): 78.6 ± 0.04%
- viability at 24 h, 3 µM ([1]; Hek293T cells (non-leukemic control cell line), 3 μM): 73.1 ± 0.03%
- viability at 24 h, 5 µM ([1]; Hek293T cells (non-leukemic control cell line), 5 μM): 71.5 ± 0.02%
- viability at 24 h, 10 µM ([1]; Hek293T cells (non-leukemic control cell line), 10 μM): 67.9 ± 0.01%
- viability at 24 h, 15 µM ([1]; Hek293T cells (non-leukemic control cell line), 15 μM): 59.6 ± 0.01%
- viability at 24 h, 20 µM ([1]; Hek293T cells (non-leukemic control cell line), 20 μM): 55.7 ± 0.03%
- viability at 24 h, 30 µM ([1]; Hek293T cells (non-leukemic control cell line), 30 μM): 53.5 ± 0.01%
- viability at 24 h, 50 µM ([1]; Hek293T cells (non-leukemic control cell line), 50 μM): 48.5 ± 0.05%
- viability at 24 h, 70 µM ([1]; Hek293T cells (non-leukemic control cell line), 70 μM): 42.9 ± 0.03%
- viability at 24 h, 100 µM ([1]; Hek293T cells (non-leukemic control cell line), 100 μM): 42.7 ± 0.03%
- viability at 24 h, 150 µM ([1]; Hek293T cells (non-leukemic control cell line), 150 μM): 42.5 ± 0.02%
- viability at 24 h, 200 µM ([1]; Hek293T cells (non-leukemic control cell line), 200 μM): 42.1 ± 0.01%
- viability at 24 h, 1 µM ([1]; Hek293T cells, 1 μM): 77.7 ± 0.03%
